We go through 3 molecules from patent US8362005B2, “Monocyclic amide CGRP receptor antagonists” (Merk. Sharp & Dohme Corp., priority 2008, dated 2013).

Ends that are not written are not given here.

Assay [1] has as its system acute attacks of migraine. To be noted: clinical trials; cited from earlier work.
For assay [2], the system named is facial blood flow. To be noted: marmoset, electrical stimulation of the trigeminal ganglion; cited from earlier work.
Assay [3] concerns headache induced by CGRP infusion. Particulars: control group, clinical; cited from earlier work.
In assay [4] the target is T1, recombinant human CL receptor/RAMP1 (Homo sapiens, UniProt O60894+Q16602).
T1 construct: expressed in transfected cells; membranes
Kind of assay: Recombinant receptor binding assay (125I-hCGRP, membranes of HEK 293 cells). To be noted: 10 pM 125I-hCGRP. Here is the method: RECOMBINANT RECEPTOR: Human CL receptor (Genbank accession number L76380) was subcloned into the expression vector pIREShyg2 (BD Biosciences Clontech) as a 5′NheI and 3′ PmeI fragment. Human RAMP 1 (Genbank accession number AJ001014) was subcloned into the expression vector pIRESpuro2 (BD Biosciences Clontech) as a 5′NheI and 3′NotI fragment. HEK 293 cells (human embryonic kidney cells; ATCC #CRL-1573) were cultured in DMEM with 4.5 g/L glucose, 1 mM sodium pyruvate and 2 mM glutamine supplemented with 10% fetal bovine serum (FBS), 100 units/mL penicillin and 100 μg/mL streptomycin, and maintained at 37° C. and 95% humidity. Cells were subcultured by treatment with 0.25% trypsin with 0.1% EDTA in HBSS. Stable cell line generation was accomplished by co-transfecting 10 μg of DNA with 30 μg Lipofectamine 2000 (Invitrogen) in 75 cm^2 flasks. CL receptor and RAMP1 expression constructs were co-transfected in equal amounts. […]
[formula] Where Y is observed CPM bound, Ymax is total bound counts, Ymin is non specific bound counts, (Ymax−Ymin) is specific bound counts, % Imax is the maximum percent inhibition, % I min is the minimum percent inhibition, radiolabel is the probe, and the Kd is the apparent dissociation constant for the radioligand for the receptor as determined by Hot saturation experiments.

Assay [5] deals with middle meningeal artery. Particulars: rats, electrical stimulation of the dura mater, prior administration; cited from earlier work.
The test system of assay [6] is facial blood flow. Particulars: rat, trigeminal ganglion stimulation; cited from earlier work.

T1 sequence (Q16602 23-461): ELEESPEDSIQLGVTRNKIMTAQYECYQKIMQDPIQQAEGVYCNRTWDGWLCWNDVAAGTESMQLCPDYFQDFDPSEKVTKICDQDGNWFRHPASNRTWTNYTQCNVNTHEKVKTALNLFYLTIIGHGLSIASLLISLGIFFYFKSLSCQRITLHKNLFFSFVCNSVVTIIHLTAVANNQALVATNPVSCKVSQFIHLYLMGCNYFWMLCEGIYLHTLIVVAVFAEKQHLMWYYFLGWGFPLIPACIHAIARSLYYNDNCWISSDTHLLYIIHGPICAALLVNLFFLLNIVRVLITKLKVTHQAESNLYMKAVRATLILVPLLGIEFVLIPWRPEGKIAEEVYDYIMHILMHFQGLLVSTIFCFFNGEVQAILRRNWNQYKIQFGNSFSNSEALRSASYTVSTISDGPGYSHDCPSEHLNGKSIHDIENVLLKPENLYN
T1 sequence (O60894 27-148): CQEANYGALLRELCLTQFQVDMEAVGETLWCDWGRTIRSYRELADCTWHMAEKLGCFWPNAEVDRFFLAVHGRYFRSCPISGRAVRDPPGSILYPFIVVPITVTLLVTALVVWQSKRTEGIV

Regarding `NCCCC[C@H](NC(=O)[C@@H](Cc1cc(Br)c(O)c(Br)c1)NC(=O)N1CCC(N2Cc3ccccc3NC2=O)CC1)C(=O)N1CCN(c2ccncc2)CC1` [BIBN4096BS], the “efficacy in treating acute attacks of migraine” value in assay [1] is on record as “effective in treating acute attacks of migraine”. Also, the “block of the increase in facial blood flow” value in assay [2] was “could be blocked”. In addition, in assay [3], the “prevention of headache induced by CGRP infusion” value is on record as “able to prevent headache induced by CGRP infusion”.

Usually Ki stands for a dissociation constant, usually derived from enzyme kinetics or from competition with a known ligand. With `O=C(Cn1c(-c2ccccc2)c(Cl)nc(N2CCCC2)c1=O)Nc1ccc2c(c1)CC1(C2)C(=O)Nc2ncccc21` (stereo not drawn) [Example 5, 2-(5-Chloro-2-oxo-6-phenyl-3-pyrrolidin-1-ylpyrazin-1(2H)-yl)-N-(2′,-oxo-1,1′,2′,3-tetrahydrospiro[indene-2,3′-pyrrolo[2,3-b]pyridin]-5-yl)acetamide], the Ki in assay [4] was 0.13 µM.

For the molecule “CGRP(8-37): a peptide CGRP antagonist; fragment of CGRP that lacks seven N-terminal amino acid residues (VTHRLAGLLSRSGGVVKNNFVPTNVGSKAF; ends and bridges not checked; UniProt P06881 90-119, looked up, fragment)”, the “block of the increase in diameter of the middle meningeal artery” value in assay [5] was “blocked”. For the same molecule, the “inhibition of increased facial blood flow” value in assay [6] is “inhibited”.
